A short description of series [1]: in vitro. Conditions: mouse, serum.
Description: Serum stability data was obtained using the appropriate animal serum, each incubated with the compound for up to two hours at 37 C.
Series [2] is described as follows: in vitro. Conditions: human, microsomes.
Description: (§1) For HLM and MLM stability studies, each compound was incubated with the liver microsome mixture for up to an hour at 37 C in the presence of NADPH.
(§2) After the incubations, the reactions were stopped and the compounds were analyzed according to the method developed for each.
Series [3] can be described thus: Mouse pharmacokinetics, IV and IP dosing. It is filed as in vivo, mice. Conditions: for AUC(0-inf) / AUC(0-t) / C0 / MRT inf / clearance / half-life / Vd: in vivo. As to the method: The pharmocokinetic parameters in mice by both intravenous (IV) and intraperitoneal (IP) dosing, as well as the serum and microsome stability for each of compound 22, 23, 24, and 25 was determined. Bioanalytical methods were developed for each compound using an LC-MS/MS method with LLOQ>100 ng/ml.
For in-vivo PK work, at least 3 mice were used per timepoint. For each compound, the animals were injected either IV or IP with the compound. IV injections used 1 mg/kg, and IP injections were at 15 mg/kg. Blood was collected at the indicated timepoints and analyzed according to the bioanalytical method developed.

A further series has as its system fresh human RBCs. It is filed as cell-based. Conditions: red cells of human, 1 h, 250. How it is done: To assess the nonspecific lytic properties of each compounds disclosed herein, each mentioned compound was tested for hemolytic properties against fresh human RBCs. Briefly, donor blood was drawn into a K2EDTA anticoagulant tube from multiple O+ donors. The blood was washed 3 times in PBS. RBCs were diluted to 2% in PBS and compounds were added at various concentrations. Samples were incubated at 37 C for 1 hr, then centrifuged at 2200 rpm for 5 min. Supernatants were measured for absorbance at 450 nm or 405 nm. The percentage hemolysis was calculated as lysis relative to 1% Triton X-100 incubation.

The subject of another series is SSP-25 cells. The series is described as follows: xCELLigence cell death assay in SSP-25 cells (cellular assay for RAD51 inhibition). The series is classed as cell-based. The note with it: concentration gradient added at 20 hour mark, only values with R^>0.85 shown. How it is done: The efficacy of the peptides described herein was assessed by their ability to cause death in SSP-25 cells, which have amplification of RAD51 and are dependent on its activity.
First, 5,000 SSP25 cells were plated, and adherence and growth was measured for 20 hours using live measurements of current impedance through the plate using the xCELLigence™ instrument. At the 20 hour mark, a concentration gradient of each compound or a PBS control was added to the SSP-25 cells, which were cultured in […] RMPI media with 10% FBS. […] Only values with confidence and R^>0.85 are shown.

Series [4] can be described thus: in vitro. The note with it: mouse, microsomes.
Description: as §1, §2
Where [5] appears, read: ip, 15 mg/kg, 15 mg/kg IP, read-out: t½ (converted).
[6] abbreviates: ip, 15 mg/kg, IP (15 mg/kg), read-out: Half-life Mouse IP.
Setting [7] is: iv, 1 mg/kg, 1 mg/kg IV, read-out: Vss.
Where [8] appears, read: iv, 1 mg/kg, 1 mg/kg IV, read-out: Vz.
Setting [9] is: iv, 1 mg/kg, 1 mg/kg IV, read-out: t½ (converted).
The mark [10] stands for this setting: iv, 1 mg/kg, IV (1 mg/kg), read-out: Half-life Mouse IV.

Where two headings read alike, the source gives them in different places. Where a SMILES comes first, the peptide text is derived from it. [ ]: non-standard residue; d: D form. dNle = CCCC[C@@H](N)C(=O)O; Ahx = NCCCCCC(=O)O; βAla = NCCC(=O)O

For `CCCC[C@@H](NC(=O)[C@@H](CC(C)C)NC(C)=O)C(=O)N[C@H](CCCNC(=N)N)C(=O)N[C@H](C)C(=O)N[C@@H](C(=O)N[C@H](CCCNC(=N)N)C(=O)N[C@H](CC(C)C)C(=O)N[C@H](CCCNC(=N)N)C(=O)N[C@@H](C(=O)NCCC(=O)N[C@H](CC(C)C)C(=O)N[C@H](CCCNC(=N)N)C(=O)NCCCCCC(=O)N[C@H](CCCNC(=N)N)C(=O)NCCCCCC(=O)N[C@H](CCCNC(=N)N)C(=O)NCCCCCC(=O)N[C@H](CCCNC(=N)N)C(=O)NCCCCCC(=O)N[C@H](CCCNC(=N)N)C(=O)NCCCCCC(=O)N[C@H](CCCNC(=N)N)C(=O)NCCCCCC(=O)N[C@H](Cc1ccc(O)cc1)C(N)=O)C(C)C)C(C)C` [Compound 24, Ac-l{d-norLeucine}ravrlrv[beta-ALA]lr(Ahx)r(Ahx)r(Ahx)r(Ahx)r(Ahx)r(Ahx)y-NH2] (Ac-[dL][dNle][dR][dA][dV][dR][dL][dR][dV][βAla][dL][dR][Ahx][dR][Ahx][dR][Ahx][dR][Ahx][dR][Ahx][dR][Ahx][dY]-NH2), the half-life in the series “in vitro [1]” was 4.62 h; in “in vitro [2]”, 0.947 h; in series [3] (setting [5]) it was 1.89 h; in series [3] (setting [6]), 1.88 h; in series [3] (setting [9]), 0.549 h; in series [3] (setting [10]), 0.549 h. In “in vitro [4]”, this compound yielded a half-life of 1.93 h. Also, the “AUC Extr” value in series [3] (1 mg/kg IV) turned out to be 28.8%. Also, the Vss in series [3] (15 mg/kg IP) stood at 2.95 L/kg. Moreover, the total exposure AUC(0-inf) (in general, total exposure, with the tail of the curve extrapolated) came to 528 ng·h/mL in series [3] (1 mg/kg IV) and 1010 ng·h/mL in series [3] (15 mg/kg IP). The AUC(0-t) (in general, exposure summed from dosing to a finite time, without extrapolation to infinity) in series [3] (1 mg/kg IV) came to 375 ng·h/mL. This compound also had a C0 in series [3] (1 mg/kg IV) of 683 ng/mL. Besides, the figures for the MRT inf in series [3] (1 mg/kg IV) and in series [3] (15 mg/kg IP) were 0.779 h and 17.9 h, respectively. This compound also came in with a clearance in series [3] (1 mg/kg IV) of 31.7 mL/min/kg. Further, the Vd in series [3] (setting [7]) came out at 1.48 L/kg; in series [3] (setting [8]) it was 1.51 L/kg. Moreover, in the series with fresh human RBCs, the “% Hemolysis (250 uM)” value turned out to be 3%. Besides, the concentration for half-maximal inhibition (IC50) (usually the concentration that inhibits the measured activity by half) in the series on SSP-25 cells worked out at 6.2 µM.
As for `CCCC[C@@H](NC(=O)[C@@H](CC(C)C)NC(C)=O)C(=O)N[C@H](CCCNC(=N)N)C(=O)N[C@H](CO)C(=O)N[C@@H](C(=O)N[C@H](CCCNC(=N)N)C(=O)N[C@H](CC(C)C)C(=O)N[C@H](CCCNC(=N)N)C(=O)N[C@@H](C(=O)NCC(=O)N[C@H](CC(C)C)C(=O)N[C@H](CCCNC(=N)N)C(=O)NCCCCCC(=O)N[C@H](CCCNC(=N)N)C(=O)NCCCCCC(=O)N[C@H](CCCNC(=N)N)C(=O)NCCCCCC(=O)N[C@H](CCCNC(=N)N)C(=O)NCCCCCC(=O)N[C@H](CCCNC(=N)N)C(=O)NCCCCCC(=O)N[C@H](CCCNC(=N)N)C(N)=O)C(C)C)C(C)C` [Compound 25, Ac-l{d-norLeucine}rsvrlrvGlr(Ahx)r(Ahx)r(Ahx)r(Ahx)r(Ahx)r-NH2], the half-life was above 8.33 h in the series “in vitro [1]”; 1.36 h in “in vitro [2]”; 2.14 h in series [3] (setting [5]); 2.14 h in series [3] (setting [6]); 0.423 h in series [3] (setting [9]); 0.423 h in series [3] (setting [10]). The half-life in the series “in vitro [4]” was found to be 0.77 h. Also, the “AUC Extr” value in series [3] (1 mg/kg IV) was 16.8%. The Vss in series [3] (15 mg/kg IP) was found to be 3.41 L/kg. Also, the AUC(0-inf) in series [3] (1 mg/kg IV) came out at 308 ng·h/mL; in series [3] (15 mg/kg IP), 831 ng·h/mL. This compound also returned an AUC(0-t) in series [3] (1 mg/kg IV) of 254 ng·h/mL. Moreover, in series [3] (1 mg/kg IV), the C0 was 750 ng/mL. The results for the mean residence time (MRT inf) in series [3] (1 mg/kg IV) and in series [3] (15 mg/kg IP) were 0.551 h and 21.8 h, respectively. In series [3] (1 mg/kg IV), this compound registered a clearance of 55.7 mL/min/kg. For the same compound, the figures for the Vd in series [3] (setting [7]) and in series [3] (setting [8]) were 1.8 L/kg and 1.99 L/kg, respectively. Also, in the series on fresh human RBCs, the “% Hemolysis (250 uM)” value was determined as 4%. Besides, in the series on SSP-25 cells, the IC50 turned out to be 14 µM.

(Values after patent publication US12590126B2, “Compounds for selective disruption of protein-protein interactions” (SyntheX, Inc., priority 2017, dated 2026).)
